Consider twelve compounds from patent US6774121B1, “Phospholipid prodrugs of anti-proliferative drugs” (D-Pharm, Ltd., priority 1999, dated 2004).

One assay has as its system PLA2. The conditions noted are these: isoform not stated; read-out: IC50 of known inhibitors of PLA2; cited from earlier work.
Assay [1] concerns CEM-MTX (MTX-resistant mutant of CEM, mutation in the RFC). Kind of assay: MTT cell growth inhibition, MTX-resistant CEM-MTX cells (Example 4). The class given is cell-based, human. The conditions noted are these: for EC50: 72 hours, MTT assay, read-out: EC50, nMol CEM-MTX. Here is the method: A series of methotrexate derivatives were screened for their inhibitory effect on cell growth. Three tumor cell lines were used for this screen: i) human leukemia cell line CCRF-CEM which is MTX-sensitive (herein denoted as CEM), ii) a mutant of CEM cell line which is MTX-resistant due to a mutation in the RFC (herein denoted as CEM-MTX; provided by Dr. Y. Assraf, Technion, Israel), and iii) rat C6 glioma cell line.
(§1) Cells were seeded at a density of 10^4 cells/ml in RPMI medium supplemented with 10% FCS in 96 well plates. The cultured cells were incubated, during their linear growth phase, in the presence and absence of various concentrations of MTX derivatives. The tested compounds were prepared as 1 mM stock in absolute ethanol or DMSO and were diluted into the medium. The highest vehicle presence in the assay was 5% of the vehicle. After 72 hours at 37° C. the cytotoxic effect on the cells was estimated by using the colorimetric MTT assay (Mosmann (1983) J. Immunol Methods 65: 55-63) that measures mitochondrial reductase activity and serves for quantitative assessment of cellular viability. Drug concentration required for inhibiting the growth of 50% of cell population in culture over a 72 hour period incubation, is defined as EC50.
The EC50 values were calculated from dose response curves for each tested compound.

Assay [2] has as its system human leukemia cell line CCRF-CEM (CEM). Kind of assay: MTT cell growth inhibition, CEM cells (Example 4). The format is cell-based. The conditions noted are these: 72 hours, MTT assay; read-out: EC50, nMol CEM. The method, then:
as §1, with “A series of methotrexate derivatives were screened for their inhibitory effect on cell growth. Three tumor cell lines were used for this screen: i) human leukemia cell line CCRF-CEM which is MTX-sensitive (herein denoted as CEM), ii) a mutant of CEM cell line which is MTX-resistant due to a mutation in the RFC (herein denoted as CEM-MTX; provided by Dr. […], Technion, Israel), and iii) rat C6 glioma cell line. Cells” for “Cells”, “[…] The EC50 values were calculated from dose response curves” for “Drug concentration required”, “each tested compound.” for “inhibiting the growth of 50% of cell population in culture over a 72 hour period incubation, is defined as EC50.”

Assay [3] relates to Friend cells (an erythroleukemic cell line). Kind of assay: MTT cytotoxicity, Friend cells (Example 5). The format is cell-based. The conditions noted are these: 72 hour. The method, then:
The toxicity of methotrexate derivatives of the invention (DP-MTX) was evaluated in an additional cell-culture system. The doses required to inhibit the growth of cultured Friend cells (an erythroleukemic cell line) by 50%, over a 72 hour period (ED50), were determined using a mitochondrial viability (MTT) endpoint assay.
Friend cells were seeded at a density of 10^4 cells/ml in RPMI medium supplemented with 10% FCS in 96 well plates. The cultured cells were incubated, during their linear growth phase, in the presence and absence of various concentrations of MTX derivatives. After 72 hours at 37° C., cell viability was estimated by using the colorimetric MTT assay.

Another assay has as its system rat C6 glioma cell line. Kind of assay: MTT cell growth inhibition, C6 glioma cells (Example 4). The format is cell-based. Conditions: 72 hours, MTT assay; read-out: EC50, nMol C6 glioma. Here is the method:
as §1, with “A series of methotrexate derivatives were screened for their inhibitory effect on cell growth. Three tumor cell lines were used for this screen: i) human leukemia cell line CCRF-CEM which is MTX-sensitive (herein denoted as CEM), ii) a mutant of CEM cell line which is MTX-resistant due to a mutation in the RFC (herein denoted as CEM-MTX; provided by Dr. […], Technion, Israel), and iii) rat C6 glioma cell line. Cells” for “Cells”, “[…] The EC50 values were calculated from dose response curves” for “Drug concentration required”, “each tested compound.” for “inhibiting the growth of 50% of cell population in culture over a 72 hour period incubation, is defined as EC50.”
In general terms: Tetrazolium dyes change colour on reduction, which living cells bring about.

The test system of a further assay is L1210. Kind of assay: MTT cytotoxicity, parent L1210 cells (Example 9). The class given is cell-based. The conditions noted are these: Mus musculus.
Assay [4] has as its system RFC-mediated MTX-resistant cell line (L1210-MTX). Briefly: MTT cytotoxicity, L1210-MTX cells (Example 9). The format is cell-based. Conditions: Mus musculus.

The structures appear in SMILES notation.

Regarding `CC(Cc1ccc(O)c(O)c1)C(C)Cc1ccc(O)c(O)c1` (stereo not drawn) [NDGA], the IC50 in the assay on PLA2 was 40 µM.
With `CCCCCCCCCCCCCCCCCC(=O)OC[C@H](COP(=O)([O-])OCC[N+](C)(C)C)OC(=O)CCNC(=O)[C@H](CCC(=O)OCCCCCCCCCCCC)NC(=O)c1ccc(N(C)Cc2cnc3nc(N)nc(N)c3n2)cc1` [DP-MTX-128, 1-Stearoyl-2-[3-(γ-dodecylate-α-MTX amido)Propanoyl]-sn-Glycero-3-phosphocholine], the EC50 in assay [1] was 1.6 µM; in assay [2], 0.771 µM.
As to `CCCCCCCCCCCCOC(=O)CC[C@H](NC(=O)c1ccc(N(C)Cc2cnc3nc(N)nc(N)c3n2)cc1)C(=O)O` [γ-C12H25-MTX, γ-dodecylate-MTX], the “inhibiting the growth of the MTX-resistant cell line, CEM-MTX (in words)” value (from here on “inhibiting the growth”) in assay [1] is given as “not effective”. For the same compound, the EC50 in assay [1] amounted to 4.86 µM; in assay [2], 0.013 µM.
As to `CCCCCCCCCCCCCCCCCC(=O)OC[C@H](COP(=O)([O-])OCC[N+](C)(C)C)OC(=O)CCNC(=O)C(CCC(=O)O)NC(=O)c1ccc(N(C)Cc2cnc3nc(N)nc(N)c3n2)cc1` (stereo partly drawn) [DP-MTX-93, 1-Stearoyl-2-[3-(α-MTX amido)-Propanoyl]-sn-Glycero-3-phosphocholine], the EC50 in assay [1] was determined as 4.65 µM; in the assay on rat C6 glioma cell line, 0.417 µM; in assay [2], 0.027 µM. The “ED50” value in assay [3] came to 97.5 nmol.
For `CC(=O)O[C@H]1C(=O)[C@@]2(C)[C@H]([C@H](OC(=O)c3ccccc3)[C@]3(O)C[C@H](OC(=O)[C@H](O)[C@@H](NC(=O)c4ccccc4)c4ccccc4)C(C)=C1C3(C)C)[C@]1(OC(C)=O)CO[C@@H]1C[C@@H]2O` [TAX, Taxol], the EC50 (in the assay on L1210; in assay [4]) was 0.008 µM in each case.
With `CCCCCCCCCCCCOC(=O)CC[C@H](NC(=O)c1ccc(N(C)Cc2cnc3nc(N)nc(N)c3n2)cc1)C(=O)OCCCCCCCCCCCC` [α-C12H25-MTX-γ-C12H25, α-dodecylate-MTX-γ-dodecylate], the “inhibiting the growth” value in assay [1] is “not effective”. Further, the EC50 in assay [1] amounted to 5.09 µM; in the assay on rat C6 glioma cell line, 0.807 µM; in assay [2], 4.86 µM.
`CCCCCCCCCCCCCCCCCC(=O)OC[C@H](COP(=O)([O-])OCC[N+](C)(C)C)OC(=O)CCCCCNC(=O)C(CCC(=O)O)NC(=O)c1ccc(N(C)Cc2cnc3nc(N)nc(N)c3n2)cc1` (stereo partly drawn) [DP-MTX-106, 1-Stearoyl-2-[6-(α-MTX amido)-Hexanoyl]-sn-Glycero-3-phosphocholine]: the EC50 in assay [1] was found to be 8.4 µM; in the assay with rat C6 glioma cell line, 3.22 µM; in assay [2], 0.499 µM. Further, the “ED50” value in assay [3] turned out to be 390 nmol.
The matching figures for `CCCCCCCCCCCCCCCCCC(=O)OC[C@H](COP(=O)([O-])OCC[N+](C)(C)C)OC(=O)CCCNC(=O)C(CCC(=O)O)NC(=O)c1ccc(N(C)Cc2cnc3nc(N)nc(N)c3n2)cc1` (stereo partly drawn) [DP-MTX-129, 1-Stearoyl-2-[4-(α-MTX amido)-Butanoyl]-sn-Glycero-3-phosphocholine]: 5.98 µM, 3.11 µM, 0.821 µM and 97.5 nmol.
The matching figures for `CCCCCCCCCCCCCCCCCC(=O)OC[C@H](COP(=O)([O-])OCC[N+](C)(C)C)OC(=O)CCCCCCCNC(=O)C(CCC(=O)O)NC(=O)c1ccc(N(C)Cc2cnc3nc(N)nc(N)c3n2)cc1` (stereo partly drawn) [DP-MTX-142, 1-Stearoyl-2-[8-(α-MTX amido)-Octanoyl]-sn-Glycero-3-phosphocholine]: 11.6 µM, 36 µM, 6.34 µM and 3000 nmol.
Take `CCCCCCCCCCCCOC(=O)[C@H](CCC(=O)O)NC(=O)c1ccc(N(C)Cc2cnc3nc(N)nc(N)c3n2)cc1` [α-C12H25-MTX, α:-dodecylate-MTX]: in assay [1], the “inhibiting the growth” value was “not effective” and the concentration for a half-maximal effect (EC50) was 9.42 µM. Also, the EC50 in assay [2] worked out at 0.088 µM.
For the compound `CCCCCCCCCCCCCCCCCC(=O)OC[C@H](COP(=O)([O-])OCC[N+](C)(C)C)OC(=O)CCCCCCCNC(=O)[C@H](CCC(=O)OCCCCCCCCCCCC)NC(=O)c1ccc(N(C)Cc2cnc3nc(N)nc(N)c3n2)cc1` [DP-MTX-127, 1-Stearoyl-2-[8-(γ-dodecylate-α-MTX amido)-Octanoyl]-sn-Glycero-3-phosphocholine], the EC50 in the assay on rat C6 glioma cell line worked out at 0.795 µM.
For the compound `CCN(CC)CCCC(C)Nc1c2ccc(Cl)cc2nc2ccc(OC)cc12` (stereo not drawn) [Quinacrine], the IC50 in the assay on PLA2 was 390 µM.

Broadly, the IC50 is the midpoint of a concentration-inhibition curve. What is called EC50 is the concentration at which the effect is half-maximal.
